Test [1] addresses Proto-oncogene tyrosine-protein kinase Src (Homo sapiens, UniProt P12931). As to the kind of experiment: Selectivity interaction (Kinase panel (enzymatic assay)) EUB0000595a SRC.
For test [2], the target named is Serine/threonine-protein kinase 32B (Homo sapiens) (UniProt Q9NY57). As to the kind of experiment: Selectivity interaction (KinomeScan (DiscoverX)) EUB0001619a STK32B. To be noted: at 1 µM.
Test [3] deals with Myosin light chain kinase, smooth muscle (Homo sapiens, UniProt Q15746). To be noted: at 10 µM.
The target of test [4] is T1, Ephrin type-B receptor 3 (Homo sapiens) (UniProt P54753).
T1 sequence (whole entry): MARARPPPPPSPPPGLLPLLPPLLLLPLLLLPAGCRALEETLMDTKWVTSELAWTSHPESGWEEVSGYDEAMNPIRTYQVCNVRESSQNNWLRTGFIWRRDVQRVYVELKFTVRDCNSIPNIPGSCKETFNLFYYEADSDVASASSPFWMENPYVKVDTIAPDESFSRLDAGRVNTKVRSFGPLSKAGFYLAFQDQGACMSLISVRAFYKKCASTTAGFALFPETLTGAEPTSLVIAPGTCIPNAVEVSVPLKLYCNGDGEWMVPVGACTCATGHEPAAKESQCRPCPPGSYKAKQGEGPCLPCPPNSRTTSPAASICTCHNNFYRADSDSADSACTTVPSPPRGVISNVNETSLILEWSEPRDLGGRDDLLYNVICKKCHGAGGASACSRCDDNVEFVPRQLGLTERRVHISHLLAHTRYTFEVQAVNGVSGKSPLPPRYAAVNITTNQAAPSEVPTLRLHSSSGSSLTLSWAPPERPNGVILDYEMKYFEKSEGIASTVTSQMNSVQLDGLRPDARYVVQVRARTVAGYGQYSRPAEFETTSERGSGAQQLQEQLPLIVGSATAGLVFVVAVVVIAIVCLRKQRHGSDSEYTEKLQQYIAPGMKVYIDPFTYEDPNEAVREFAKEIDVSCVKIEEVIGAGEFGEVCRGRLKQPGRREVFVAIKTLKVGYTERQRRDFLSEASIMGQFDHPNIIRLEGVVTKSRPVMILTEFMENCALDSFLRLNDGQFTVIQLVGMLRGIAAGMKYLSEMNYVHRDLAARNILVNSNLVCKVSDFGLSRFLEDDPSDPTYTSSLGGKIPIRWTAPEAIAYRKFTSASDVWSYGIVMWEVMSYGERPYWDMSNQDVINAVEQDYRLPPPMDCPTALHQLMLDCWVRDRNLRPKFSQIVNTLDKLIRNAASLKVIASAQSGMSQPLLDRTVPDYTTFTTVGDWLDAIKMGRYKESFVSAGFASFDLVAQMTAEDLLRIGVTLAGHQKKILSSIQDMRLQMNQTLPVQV
To be noted: at 10 µM.

The target in test [5] is Mitogen-activated protein kinase 14 (Homo sapiens, UniProt Q16539). As to the kind of experiment: Selectivity interaction (SelectScreen profiling (Invitrogen)) EUB0000607a MAPK14. Particulars: at 2 µM.
Test [6] has as its target T2, Bone morphogenetic protein receptor type-2 (Homo sapiens) (UniProt Q13873).
T2 sequence (whole entry): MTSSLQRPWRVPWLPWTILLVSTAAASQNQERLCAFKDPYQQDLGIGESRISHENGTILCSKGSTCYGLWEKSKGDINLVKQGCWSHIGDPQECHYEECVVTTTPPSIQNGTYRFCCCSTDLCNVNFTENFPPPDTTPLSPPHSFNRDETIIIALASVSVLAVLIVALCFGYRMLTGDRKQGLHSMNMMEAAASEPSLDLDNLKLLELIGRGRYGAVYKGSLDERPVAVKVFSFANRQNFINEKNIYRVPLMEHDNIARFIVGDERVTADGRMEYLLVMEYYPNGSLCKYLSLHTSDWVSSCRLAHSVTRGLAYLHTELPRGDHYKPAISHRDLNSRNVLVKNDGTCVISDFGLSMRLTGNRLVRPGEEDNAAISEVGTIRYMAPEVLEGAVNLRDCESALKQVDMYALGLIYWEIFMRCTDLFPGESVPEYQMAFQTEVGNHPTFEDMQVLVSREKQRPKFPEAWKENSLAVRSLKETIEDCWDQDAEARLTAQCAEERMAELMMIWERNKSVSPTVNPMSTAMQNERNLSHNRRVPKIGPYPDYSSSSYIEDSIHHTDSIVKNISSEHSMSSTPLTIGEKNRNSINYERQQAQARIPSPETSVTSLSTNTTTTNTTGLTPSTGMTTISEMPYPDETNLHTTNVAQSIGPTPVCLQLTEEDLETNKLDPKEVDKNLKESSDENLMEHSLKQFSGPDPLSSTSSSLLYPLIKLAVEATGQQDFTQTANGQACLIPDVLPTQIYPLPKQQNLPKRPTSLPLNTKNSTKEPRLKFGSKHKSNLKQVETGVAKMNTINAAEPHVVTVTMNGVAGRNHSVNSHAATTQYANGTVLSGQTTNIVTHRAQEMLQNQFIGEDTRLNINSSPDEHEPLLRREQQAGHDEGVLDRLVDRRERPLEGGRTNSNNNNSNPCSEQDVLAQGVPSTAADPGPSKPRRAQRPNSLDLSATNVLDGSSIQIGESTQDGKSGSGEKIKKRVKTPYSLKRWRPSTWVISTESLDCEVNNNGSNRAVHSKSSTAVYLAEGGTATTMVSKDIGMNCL
As to the kind of experiment: Selectivity interaction (Kinase panel (DSF assay)) EUB0001559a BMPR2. (In general: In DSF a fluorescence change marks the thermal transition of the protein.)

Test [7] deals with Bone morphogenetic protein receptor type-1B (Homo sapiens, UniProt O00238). As to the kind of experiment: Selectivity interaction (KinomeScan (DiscoverX)) EUB0000045b BMPR1B.
Bone morphogenetic protein receptor type-1B, sequence (O00238 whole entry): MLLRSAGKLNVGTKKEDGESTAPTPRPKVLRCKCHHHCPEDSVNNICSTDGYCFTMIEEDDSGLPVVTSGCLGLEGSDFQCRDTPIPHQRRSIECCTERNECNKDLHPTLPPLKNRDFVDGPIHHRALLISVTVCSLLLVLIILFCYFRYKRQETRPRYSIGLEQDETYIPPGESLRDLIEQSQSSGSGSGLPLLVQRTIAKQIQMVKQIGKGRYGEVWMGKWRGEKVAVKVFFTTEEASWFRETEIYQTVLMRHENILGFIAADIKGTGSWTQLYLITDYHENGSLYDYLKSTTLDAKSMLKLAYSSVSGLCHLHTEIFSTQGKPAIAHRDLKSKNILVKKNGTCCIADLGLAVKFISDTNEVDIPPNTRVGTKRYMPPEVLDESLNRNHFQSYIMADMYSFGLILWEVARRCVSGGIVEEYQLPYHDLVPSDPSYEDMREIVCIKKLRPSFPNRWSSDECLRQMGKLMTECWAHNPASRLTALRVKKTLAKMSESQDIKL
In test [8] the target is Vascular endothelial growth factor receptor 1 (Homo sapiens) (UniProt P17948). As to the kind of experiment: Selectivity interaction (KinomeScan (DiscoverX)) EUB0000045b FLT1.
Vascular endothelial growth factor receptor 1 (Homo sapiens), sequence (P17948 whole entry): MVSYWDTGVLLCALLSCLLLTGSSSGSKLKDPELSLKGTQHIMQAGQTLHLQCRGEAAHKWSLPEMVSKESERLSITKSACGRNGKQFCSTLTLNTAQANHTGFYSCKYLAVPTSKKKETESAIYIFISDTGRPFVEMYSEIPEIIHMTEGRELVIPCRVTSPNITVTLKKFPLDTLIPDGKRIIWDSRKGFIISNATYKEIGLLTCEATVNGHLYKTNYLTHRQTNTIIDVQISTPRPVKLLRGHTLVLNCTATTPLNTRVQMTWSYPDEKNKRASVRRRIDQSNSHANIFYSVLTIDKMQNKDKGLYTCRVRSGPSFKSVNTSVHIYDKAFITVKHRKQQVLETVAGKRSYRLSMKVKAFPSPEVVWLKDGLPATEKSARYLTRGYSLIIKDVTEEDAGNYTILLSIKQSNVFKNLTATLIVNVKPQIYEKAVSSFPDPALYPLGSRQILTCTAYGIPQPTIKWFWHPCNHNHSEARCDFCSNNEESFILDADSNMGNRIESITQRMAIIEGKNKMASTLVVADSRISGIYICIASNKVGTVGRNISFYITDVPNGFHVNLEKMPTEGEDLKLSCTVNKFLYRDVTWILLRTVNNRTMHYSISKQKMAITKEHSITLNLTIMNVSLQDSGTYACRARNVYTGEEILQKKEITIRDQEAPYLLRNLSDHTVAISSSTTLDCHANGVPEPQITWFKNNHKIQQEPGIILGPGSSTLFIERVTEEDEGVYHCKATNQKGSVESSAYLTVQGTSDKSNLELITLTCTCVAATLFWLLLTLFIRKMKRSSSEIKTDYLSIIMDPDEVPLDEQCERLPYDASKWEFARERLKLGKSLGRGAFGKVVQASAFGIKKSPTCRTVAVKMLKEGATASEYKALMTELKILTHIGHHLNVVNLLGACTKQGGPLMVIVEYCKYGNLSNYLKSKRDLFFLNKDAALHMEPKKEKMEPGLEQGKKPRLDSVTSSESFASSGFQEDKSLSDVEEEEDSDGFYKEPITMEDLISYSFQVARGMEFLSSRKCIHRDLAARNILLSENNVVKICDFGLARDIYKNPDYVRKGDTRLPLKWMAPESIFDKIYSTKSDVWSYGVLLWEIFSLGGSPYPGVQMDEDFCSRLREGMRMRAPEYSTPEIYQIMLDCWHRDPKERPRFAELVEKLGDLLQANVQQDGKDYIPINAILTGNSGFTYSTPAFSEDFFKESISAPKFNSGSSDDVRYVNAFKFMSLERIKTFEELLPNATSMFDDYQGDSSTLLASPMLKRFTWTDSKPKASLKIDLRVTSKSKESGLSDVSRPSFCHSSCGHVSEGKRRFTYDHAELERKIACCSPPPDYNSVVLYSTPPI
Test [9] deals with Leucine-rich repeat serine/threonine-protein kinase 2 (Homo sapiens, UniProt Q5S007). As to the kind of experiment: Selectivity interaction (KinomeScan (DiscoverX)) EUB0000229b LRRK2. To be noted: at 10 µM.
Leucine-rich repeat serine/threonine-protein kinase 2, sequence (Q5S007 whole entry): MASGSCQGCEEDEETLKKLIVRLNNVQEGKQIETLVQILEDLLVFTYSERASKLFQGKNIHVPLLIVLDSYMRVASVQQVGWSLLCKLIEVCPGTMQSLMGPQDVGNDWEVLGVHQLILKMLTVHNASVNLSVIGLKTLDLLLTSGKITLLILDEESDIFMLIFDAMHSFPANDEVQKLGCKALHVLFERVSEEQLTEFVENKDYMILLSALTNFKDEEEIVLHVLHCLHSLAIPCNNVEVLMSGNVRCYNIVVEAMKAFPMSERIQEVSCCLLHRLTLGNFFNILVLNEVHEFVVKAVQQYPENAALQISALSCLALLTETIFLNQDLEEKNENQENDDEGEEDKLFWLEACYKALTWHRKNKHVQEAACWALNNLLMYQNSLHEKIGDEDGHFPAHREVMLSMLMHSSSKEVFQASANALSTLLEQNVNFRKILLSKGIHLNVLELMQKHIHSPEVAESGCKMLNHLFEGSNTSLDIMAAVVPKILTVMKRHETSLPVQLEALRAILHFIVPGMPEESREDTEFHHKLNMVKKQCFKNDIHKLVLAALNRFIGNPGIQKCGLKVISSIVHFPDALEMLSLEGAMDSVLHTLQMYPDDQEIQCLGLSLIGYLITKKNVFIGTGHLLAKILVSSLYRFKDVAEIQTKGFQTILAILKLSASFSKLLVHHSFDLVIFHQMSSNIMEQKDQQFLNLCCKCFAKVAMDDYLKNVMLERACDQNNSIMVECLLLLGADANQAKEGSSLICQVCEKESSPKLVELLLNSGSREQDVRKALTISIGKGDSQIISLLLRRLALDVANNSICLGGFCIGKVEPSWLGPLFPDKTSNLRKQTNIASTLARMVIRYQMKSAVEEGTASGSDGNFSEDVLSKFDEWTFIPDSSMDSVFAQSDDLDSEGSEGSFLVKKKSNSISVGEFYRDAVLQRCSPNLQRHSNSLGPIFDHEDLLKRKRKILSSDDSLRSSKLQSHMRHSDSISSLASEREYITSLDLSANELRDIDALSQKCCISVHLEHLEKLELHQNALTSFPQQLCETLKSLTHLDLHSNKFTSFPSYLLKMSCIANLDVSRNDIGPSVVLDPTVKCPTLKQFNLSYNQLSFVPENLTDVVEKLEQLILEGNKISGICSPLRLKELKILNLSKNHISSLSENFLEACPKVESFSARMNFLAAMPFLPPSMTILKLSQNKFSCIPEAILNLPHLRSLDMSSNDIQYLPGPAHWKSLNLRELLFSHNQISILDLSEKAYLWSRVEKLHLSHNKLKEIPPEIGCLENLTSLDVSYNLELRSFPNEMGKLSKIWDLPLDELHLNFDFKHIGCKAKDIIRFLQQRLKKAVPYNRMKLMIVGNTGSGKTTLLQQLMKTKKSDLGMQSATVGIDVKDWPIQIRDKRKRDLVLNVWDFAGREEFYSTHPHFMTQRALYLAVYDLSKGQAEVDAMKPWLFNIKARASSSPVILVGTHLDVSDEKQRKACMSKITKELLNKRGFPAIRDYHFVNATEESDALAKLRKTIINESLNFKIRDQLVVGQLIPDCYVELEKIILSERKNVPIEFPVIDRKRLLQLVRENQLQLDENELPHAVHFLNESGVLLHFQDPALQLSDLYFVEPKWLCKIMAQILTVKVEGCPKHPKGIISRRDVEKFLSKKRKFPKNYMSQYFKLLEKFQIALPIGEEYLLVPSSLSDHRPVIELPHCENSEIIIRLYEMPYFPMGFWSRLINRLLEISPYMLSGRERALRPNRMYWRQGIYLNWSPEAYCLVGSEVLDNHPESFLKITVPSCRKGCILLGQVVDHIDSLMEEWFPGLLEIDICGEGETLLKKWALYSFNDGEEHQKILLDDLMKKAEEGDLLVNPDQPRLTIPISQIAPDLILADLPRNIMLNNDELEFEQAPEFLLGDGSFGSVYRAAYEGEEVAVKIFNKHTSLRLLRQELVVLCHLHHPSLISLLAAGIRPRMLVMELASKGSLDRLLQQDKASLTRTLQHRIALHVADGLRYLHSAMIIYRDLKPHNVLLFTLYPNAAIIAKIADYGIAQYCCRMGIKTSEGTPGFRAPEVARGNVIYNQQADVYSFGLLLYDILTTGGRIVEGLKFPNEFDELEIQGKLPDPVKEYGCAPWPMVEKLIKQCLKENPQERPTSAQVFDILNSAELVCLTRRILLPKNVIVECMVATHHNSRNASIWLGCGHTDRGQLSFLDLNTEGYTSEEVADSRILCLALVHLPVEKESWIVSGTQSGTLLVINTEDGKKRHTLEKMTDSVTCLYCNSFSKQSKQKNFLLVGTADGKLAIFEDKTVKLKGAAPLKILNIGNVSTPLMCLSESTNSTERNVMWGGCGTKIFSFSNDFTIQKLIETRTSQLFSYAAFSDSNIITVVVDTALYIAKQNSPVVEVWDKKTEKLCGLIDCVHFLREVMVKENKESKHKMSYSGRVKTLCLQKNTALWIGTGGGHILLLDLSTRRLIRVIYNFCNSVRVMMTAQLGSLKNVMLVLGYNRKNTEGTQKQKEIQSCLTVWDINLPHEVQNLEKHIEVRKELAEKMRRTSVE

As usually defined, the IC50 is the point on the concentration scale where inhibition reaches its midpoint. A high value points to weaker potency in that assay.

Proto-oncogene tyrosine-protein kinase Src, sequence (P12931 2-536 limits assumed): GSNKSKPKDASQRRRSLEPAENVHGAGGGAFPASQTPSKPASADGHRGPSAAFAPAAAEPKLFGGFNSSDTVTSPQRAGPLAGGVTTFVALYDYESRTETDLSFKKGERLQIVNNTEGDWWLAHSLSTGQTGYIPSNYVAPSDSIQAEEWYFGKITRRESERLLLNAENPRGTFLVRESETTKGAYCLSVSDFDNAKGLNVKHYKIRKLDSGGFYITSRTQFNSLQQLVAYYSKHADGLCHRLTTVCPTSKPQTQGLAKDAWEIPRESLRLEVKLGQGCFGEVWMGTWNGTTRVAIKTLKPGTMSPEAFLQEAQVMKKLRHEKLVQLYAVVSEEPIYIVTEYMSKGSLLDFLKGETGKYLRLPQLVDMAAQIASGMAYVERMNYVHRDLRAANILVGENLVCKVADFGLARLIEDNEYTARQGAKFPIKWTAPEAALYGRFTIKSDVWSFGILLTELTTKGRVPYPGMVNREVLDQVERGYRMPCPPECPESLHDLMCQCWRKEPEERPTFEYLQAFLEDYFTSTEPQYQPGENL

Consider `COCC(=O)NC/C=C/c1ccc2ncnc(Nc3ccc(Oc4ccc(C)nc4)c(C)c3)c2c1` [CP-724714], for which, in [1], the IC50 is > 10 µM.

With `N#Cc1cccc(-c2c[nH]c3ncnc(N4CCOCC4)c23)c1`, in [2], the % of control came out at 53%.

Consider `CCN(CC)CCCCNc1ncc2cc(-c3cc(OC)cc(OC)c3)c(NC(=O)NC(C)(C)C)nc2n1`, for which the % of control in test [3] and in test [4] was 100% in each case.

Regarding `CNC(=O)Nc1ccc(-c2nc(N3CC4CCC(C3)O4)c3cnn(C4CCC5(CC4)OCCO5)c3n2)cc1`, the % of inhibition in test [5] came to 11%.

With `CN(C(=O)c1cnn2cccnc12)c1cc2c(cc1N1CCOCC1)C(=O)N(C[C@@H](F)C(C)(C)O)C2`, the dTM in [6] was -0.3 K.

Take `C=CC(=O)Nc1cc(-n2c(=O)ccc3cnc4ccc(-c5ccc(NS(C)(=O)=O)cc5)cc4c32)ccc1C`: the % of control turned out to be 100% in test [7] (at 1 µM), 80% in test [7] (at 10 µM), 100% in test [8] (at 1 µM) and 100% in [8] (at 10 µM).

For the molecule `COc1cc(N(C)c2ccnc3ccc(C(F)(F)F)cc23)cc(OC)c1OC`, the % binding in test [9] is 100%.

Source of the values: ChEMBL document CHEMBL5465560, “Selectivity Literature for EUbOPEN Chemogenomic Library” (2024).
